From PMC6627331, “Identification of Small Molecule Inhibitors of Staphylococcus aureus RnpA” (Antibiotics, 2019)
In brackets after ≈: the same amount, converted by molar mass. Like-named read-outs stand apart in the source and are kept apart here.

Assays:
S. aureus UAMS-1 [1] = test: Galleria mellonella model of S. aureus infection; format: in vivo; conditions: 10^4 CFU UAMS-1, single dose 100 mg·kg^−1 1 h post-infection, 16 h; DMSO 60%
Procedure: (§1) An overnight culture of S. aureus strain UAMS-1 was used to inoculate (1:100 dilution) 25 mL of fresh MH medium and growth at 37 °C on a rotary shaker at 225 rpm to exponential phase (~1 × 10^8 CFU mL^−1). Cultures were pelleted by centrifugation, washed with phosphate buffered saline (PBS), and re-suspended at ~1 × 10^7 CFU·mL^−1 in fresh PBS. G. mellonella larvae weighing 150–250 mg were inoculated with 5 µL of S. aureus into the last left proleg using a 10 µL Hamilton syringe. About 1 h after inoculation, one group of worms was treated with 2 µL DMSO as infected negative control; one group was treated with 2 µL JC2 compound at 100 mg/kg dose; another group was treated with 2 µL vancomycin at 100 mg/kg dose as standard-of-care comparison. Treatments were administered in the same manner as infection, except that each injection was in the next left proleg moving towards the head of the worm. […] In addition to the mock or compound treatment of infected larvae, a group of non-infected worm injected with DMSO or corresponding compounds were used to monitor the impact of physical trauma as well as observe toxicity associated with compound treatment.

Galleria mellonella = Galleria mellonella single tolerated dose (uninfected worms); format: in vivo; conditions: single dose 100 mg·kg^−1, 16 h
Procedure: as §1

[2] = system: norA mRNA in S. aureus UAMS-1 cells; test: Cellular norA mRNA turnover (qRT-PCR after rifampin arrest); format: cell-based, Staphylococcus aureus; conditions: 0.5× MIC for 30 min, 5 min post-transcriptional arrest; for norA mRNA degradation: mock 99%
Procedure: S. aureus mRNA half-life determinations were performed as previously described. […] Rifampin (Sigma-Aldrich) was added to the culture at a final concentration of 200 μg·mL^−1 to inhibit de novo transcript synthesis. Half of the culture was immediately removed and combined with an equal volume of ice cold acetone:ethanol (1:1 v/v). The remaining culture was returned to the shaking 37 °C incubator for an additional 5 min and then subsequently combined with an equal volume of ice cold acetone:ethanol (1:1 v/v) and stored at −80 °C until processing, as described below.
For total bacterial RNA isolation, cell suspensions were thawed on ice, centrifuged at 3000 rpm for 10 min at 4 °C, the resulting cell pellets were resuspended in ice-cold TE buffer (10 mM Tris-HCl, pH 8.0, 1 mM EDTA), and transferred into a FastPrep bead beater tube containing 0.1 mm silica spheres (MP Biomedicals; Santa Ana, CA, USA). Mixtures were homogenized at 5 m·s^−1 for 20 s, rested on ice for 5 min, and then homogenized again at 4.5 m·s^−1 in a FastPrep-24 instrument. Cellular debris were collected by centrifugation at 13,000 rpm for 15 min at 4 °C, whereas bacterial RNA was isolated from the supernatant using Qiagen RNeasy Mini Kits and miRNeasy Mini Kits were used to isolate total bacterial RNA, following the manufacturer’s instructions. RNA quantity and quality were measured using a NanoDrop 2000 spectrophotometer (ThermoFisher Scientific). For qRT-PCR, 1 μg of total bacterial RNA was treated with 3 units of DNase I (Ambion; Carlsbad, CA, USA) for 1 h at 37 °C to remove any DNA contaminants. RNA cleanup was performed using the Qiagen RNeasy Mini Kit. Subsequently, the BioRad iScript cDNA Synthesis Kit (Hercules, CA, USA) was used to convert 200 ng of RNA into cDNA, which was amplified using the BioRad iQ SYBR Green Supermix per the manufacturer’s instructions and fluorescence was read on the Biorad CFX 96 Connect machine. Transcript levels were compared to the internal control 16S rRNA (ΔΔCt method), and plotted as a fold change compared to control. The following primer pairs were used in this study for qRT-PCR: norA forward—[…] and norA reverse-[…] CTAAG; -15 ptRNA^Tyr forward-[…] and tRNA^Tyr reverse-TGGTG […]; 16S rRNA forward-[…] and 16S rRNA reverse-[…].

S. aureus UAMS-1 [3] = test: Minimum inhibitory concentration (MIC) testing; format: cell-based, Staphylococcus aureus
Procedure: Minimum inhibitory concentration (MIC) testing was performed using to Clinical & Laboratory Standards Institute (CLSI) guidelines. Accordingly, individual wells of a 96-well microtiter plate were inoculated with 10^4 colony forming units (CFU) of S. aureus UAMS-1 containing two-fold increasing concentrations (0 to 256 μg·mL^−1) of the indicated antibiotic or putative RnpA inhibitor compound, and incubated at 37 °C for 16 h in MHB. The MIC was defined as the lowest concentration of compound in which there was no visible bacterial growth in the well.

HepG2 cells = test: MTT human cell cytotoxicity testing; format: cell-based; conditions: SAR figures; 4× MIC exposure for 24 h
Procedure: Human HepG2 hepatocytes were seeded in individual wells of a 96-well cell-culture treated microtiter plate at a concentration of 1 × 10^5 cells per well and incubated in Dulbecco’s Modified Eagle Medium (DMEM) supplemented with 10% fetal bovine serum at 37 °C with 5% carbon dioxide overnight. Cells were then treated with DMSO (negative control) or the indicated agent for 24 h. MTT Cell Proliferation Assay Kits were used to assess viability according to the manufacturer’s recommendations (American Type Culture Collection; Manassas, VA, USA).

[4] = molecular target: T1, S. aureus RNase P (RnpA + rnpB) (Staphylococcus aureus, UniProt P0A0H5); test: RnpA-dependent RNase P in vitro ptRNA^Tyr processing assay; format: biochemical; conditions: in vitro ptRNA^Tyr processing
T1 construct: hexahistidine (His6) (N); made in house; host or cells: E. coli BL21 (DE3), plasmid pEXP5-nt
T1 sequence (P0A0H5 1-117): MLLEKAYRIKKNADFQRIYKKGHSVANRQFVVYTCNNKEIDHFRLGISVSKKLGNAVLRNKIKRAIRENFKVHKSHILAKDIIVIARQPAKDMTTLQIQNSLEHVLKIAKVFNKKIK
Procedure: S. aureus RNase P activity assays were performed according to conditions described previously. Briefly, ptRNA^Tyr and rnpB RNA species were first denatured by heating to 95 °C for 5 min then slow cooled to room temperature. RNase P was reconstituted by mixing an equal molar ratio of rnpB and RnpA for 15 min at 37 °C. Precursor tRNA processing inhibition reactions were performed by mixing 1.25 pmol of reconstituted RNase P (RnpA + rnpB) with an equal volume of 2× low salt buffer (50 mM Tris-HCl pH 8.0, 5 mM MgCl2) in the presence of DMSO (negative control) or the indicated compound (≤500 µM) and incubated for 5 min at 37 °C. 5 pmol ptRNA^Tyr was added and the mixture was incubated at 37 °C 15 min. Reactions were stopped by adding 2× RNA loading dye and heating at 65 °C for 10 min. Each sample was electrophoresed in a 7 M urea/8% polyacrylamide gel then stained with ethidium bromide. The Biorad EZ Gel Doc imaging system was used to visualize the RNA and relative abundance of the mature tRNA^Tyr band (% processing) in the negative control or in samples containing the indicated compounds and analyzed using Biorad Image Lab densitometry software. The inhibitory activity of the indicated compounds were calculated as a % inhibition using the following equation: […].
To assess IC50, % RNase P processing inhibition was plotted against compound concentration and a linear best fit equation was generated to calculate the IC50.

S. aureus RnpA = molecular target: T2, S. aureus RnpA (Staphylococcus aureus, UniProt P0A0H5); test: RnpA-mediated in vitro spa mRNA degradation assay; format: biochemical
T2 construct: hexahistidine (His6) (N); made in house; host or cells: E. coli BL21 (DE3), plasmid pEXP5-nt
T2 sequence (P0A0H5 1-117): T1 sequence (P0A0H5 1-117)
Procedure: RnpA-mediated RNA degradation assays were performed as previously described. Briefly, 1 pmol of spa mRNA was incubated with 5 pmol RnpA at 37 °C for 30 min in reaction buffer (50 mM Tris-HCl pH 8.0, 2 mM NaCl, 2 mM MgCl2) in the absence or presence of the indicated compound (≤500 µM). The inhibitory effects of the test compounds were calculated using Biorad ImageLab densitometry software to measure the signal intensity of the spa band in the negative control (spa alone), positive control (RnpA + spa + DMSO), and experimental samples (RnpA + spa + test compound) separated on a 1.2% formaldehyde-agarose gel. Background signal from the positive control sample sometimes resulted due to incomplete degradation of transcripts. Thus, the signal intensity of the positive control was taken into account when calculating the percent inhibition. The raw signals from the positive (+RnpA) and negative (-RnpA) controls were converted into percentage, by normalizing the positive control (+RnpA) signal to 0% RnpA inhibition and the negative control (-RnpA) to 100% RnpA inhibition. Similarly, the raw signals from the test compounds were reported as percent RnpA inhibition using the following equation: [(experimental−positive control)/(negative control−positive control)] × 100. […] To assess IC50, % RnpA degradation inhibition was plotted against compound concentration; a linear best fit equation was generated and utilized to calculate the IC50.

[5] = system: S. aureus RN4220 pML100::rnpA-KD; test: Cellular RnpA depletion hypersusceptibility growth curve; format: cell-based, Staphylococcus aureus; conditions: […] MIC JC2 or 0.5× MIC RNPA2000
Procedure: 100 μL of each culture was transferred to a 96 well flat bottom plate in duplicate and growth monitored by OD600 reading every 30 min over 8 h at 37 °C. Hypersusceptibility growth curves were averaged from two biological replicates in technical duplicate.

[6] = system: ptRNA^Tyr levels in S. aureus UAMS-1 cells; test: Cellular ptRNA^Tyr accumulation (qRT-PCR); format: cell-based, Staphylococcus aureus; conditions: 1× MIC; 30 min or 1 h
Procedure: ptRNA^Tyr cellular pools were measured, as previously described. […] The culture was immediately removed, combined with an equal volume of ice cold acetone:ethanol (1:1 v/v) and stored at −80 °C until processing, as described below.
For total bacterial RNA isolation, cell suspensions were thawed on ice, centrifuged at 3000 rpm for 10 min at 4 °C, the resulting cell pellets were resuspended in ice-cold TE buffer (10 mM Tris-HCl, pH 8.0, 1 mM EDTA), and transferred into a FastPrep bead beater tube containing 0.1 mm silica spheres (MP Biomedicals; Santa Ana, CA, USA). Mixtures were homogenized at 5 m·s^−1 for 20 s, rested on ice for 5 min, and then homogenized again at 4.5 m·s^−1 in a FastPrep-24 instrument. Cellular debris were collected by centrifugation at 13,000 rpm for 15 min at 4 °C, whereas bacterial RNA was isolated from the supernatant using Qiagen RNeasy Mini Kits and miRNeasy Mini Kits were used to isolate total bacterial RNA, following the manufacturer’s instructions. RNA quantity and quality were measured using a NanoDrop 2000 spectrophotometer (ThermoFisher Scientific). […] Subsequently, the BioRad iScript cDNA Synthesis Kit (Hercules, CA, USA) was used to convert 200 ng of RNA into cDNA, which was amplified using the BioRad iQ SYBR Green Supermix per the manufacturer’s instructions and fluorescence was read on the Biorad CFX 96 Connect machine. […]

[7] = Staphylococcus aureus, UAMS1, 16 h, Table S1, mupirocin synergy screening initial hits, read-out: MIC
[8] = Staphylococcus aureus, UAMS1, SAR figures, S. aureus UAMS-1, read-out: MIC

Structure (SMILES) | norA mRNA degradation [2] | MIC (S. aureus UAMS-1 [3]; [7]) | MIC (S. aureus UAMS-1 [3]; [8]) | MTT = % HepG2 cell survival (HepG2 cells) | IC50 ([4]; read-out: Processing IC50) | IC50 (S. aureus RnpA; read-out: Degradation IC50) | also measured
CN[C@H](CC(C)C)C(=O)N[C@H]1C(=O)N[C@@H](CC(N)=O)C(=O)N[C@H]2C(=O)N[C@H]3C(=O)N[C@H](C(=O)N[C@H](C(=O)O)c4cc(O)cc(O)c4-c4cc3ccc4O)[C@H](O)c3ccc(c(Cl)c3)Oc3cc2cc(c3O[C@@H]2O[C@H](CO)[C@@H](O)[C@H](O)[C@H]2O[C@H]2C[C@](C)(N)[C@H](O)[C@H](C)O2)Oc2ccc(cc2Cl)[C@H]1O [vancomycin, reference compound] |  |  |  |  |  |  | mortality rate of S. aureus infected worms (S. aureus UAMS-1 [1]): 40%; mortality rate of uninfected worms (Galleria mellonella): 10%
CC1CCN(C(=O)Nc2cc(Cl)cc(Cl)c2)CC1 [JC1] | did not reduce cellular norA mRNA degradation | 1 µg/mL | 1 µg/mL (≈ 3.48 µM) | 63% | 210 µM | 110 µM | MIC (S. aureus UAMS-1 [3]; S. aureus UAMS-1, 16 h in MHB, listed as 9044791): 1 µg/mL (≈ 3.48 µM)
CCC1CCCCN1C(=O)Nc1cc(Cl)cc(Cl)c1 (stereo not shown) [JC3] | did not reduce cellular norA mRNA degradation | 1 µg/mL | 1 µg/mL (≈ 3.32 µM) | 57.9% | 175 µM | 500 µM | MIC (S. aureus UAMS-1 [3]; S. aureus UAMS-1, 16 h in MHB, listed as 9044688): 1 µg/mL (≈ 3.32 µM); effect on RnpA mRNA degradation activity (in words) (S. aureus RnpA): no appreciable effect
CC(C)c1ccc(OCC(=O)NNC(=S)NC(=O)c2ccco2)cc1 [RNPA2000, reference compound] |  |  |  |  |  |  | reduction of cellular norA mRNA degradation [2]: approximately 54%; MIC (S. aureus UAMS-1 [3]; S. aureus UAMS-1, 16 h in MHB): 16 µg/mL (≈ 44.3 µM); growth of RnpA-depleted cells (RnpA-KD) versus vector cells [5]: hypersusceptibility; cellular accumulation of precursor tRNA^Tyr in comparison to mock treated cells [6]: 2.31 fold
CCC1CCCCN1C(=O)Nc1cccc(Cl)c1 (stereo not shown) [JC3b] | did not reduce cellular norA mRNA degradation |  | 32 µg/mL (≈ 120 µM) | 82.8% | ≤ 500 µM | ≤ 500 µM | IC50 ([4]; SAR figures, read-out: pIC50 = processing IC50 (converted)): 500 µM; IC50 (S. aureus RnpA; SAR figures, read-out: dIC50 = degradation IC50): 350 µM
